Assay results: US20250296938A1, “Compounds that Interact with the Ras Superfamily for the Treatment of Cancers, Inflammatory Diseases, Rasopathies, and Fibrotic Disease” (SHY Therapeutics, LLC, priority 2018, published 2025)

Assays:
[1] = test system: TNF-α; assay: Mouse TNF alpha quantification assay, LPS-stimulated RAW 264.7 macrophages; format: cell-based; details: for inhibition at 10 µM: RAW264.7, 10 μM, LPS (100 ng/ml) added concurrently, 5 hours, RAW 264.7, read-out: TNFα % Inhibition; for inhibition at 30 µM: RAW264.7, 30 μM, LPS-stimulated RAW 264.7 macrophages
Protocol: (§1) Cell lines: Abelson murine leukemia virus transformed macrophage cell line RAW 264.7 was purchased from ATCC and grown in complete DMEM-High Glucose medium supplemented with penicillin (100 U/mL), streptomycin (100 μg/mL), and 10% heat-inactivated FBS at 37° C. in a humidified incubator with 5% CO2.
(§2) Method: Cells were plated at 25000-40000 cells/well density in a 96-well plate. After a 3-hour incubation, macrophages were starved with DMEM plus 0.5% FBS overnight. The next day the small molecules to be tested were added to the cells in the final concentration of 30 μM (with 0.3% DMSO) 3 hours prior to LPS stimulation (100 ng/ml). After LPS stimulation cells were incubated at 37° C. for 16 h. Alternatively, compounds were also tested at 10 μM and LPS (100 ng/ml) was added concurrently and incubated 5 hours at 37° C. At the end of the incubation periods, culture medium was collected and production of LPS-induced TNF-α and IL-6 cytokine was measured using ELISA detection kits.
(§3) Sandwich ELISA: The ELISA Immunoassays Quantikine Mouse TNF-alpha (catalog number MTA00B) and IL6 (catalog number M6000B) were purchased from R&D Systems Inc., Minneapolis, MN. These 4.5 hours solid phase ELISAs were used to measure mouse TNF-α or IL-6 levels in macrophages culture supernatants. Assays were executed according to the manufacturer specifications.

[2] = test system: IL-6; assay: Mouse IL6 quantification assay, LPS-stimulated RAW 264.7 macrophages; format: cell-based; details: for inhibition at 10 µM: RAW264.7, 10 μM, LPS (100 ng/ml) added concurrently, 5 hours, RAW 264.7; for inhibition at 30 µM: RAW264.7, 30 μM, LPS-stimulated RAW 264.7 macrophages
Protocol: as §1, §2, §3

[3] = test system: MAPK phosphorylation; assay: MAPK cell-based phosphorylation assay (ELISA or Western), PANC-1; details: Homo sapiens, 10 μM
How it was run: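 Serum-starved (0.5% FBS overnight) cells given compound at 10 μM or serial dilutions (0.3% DMSO) for 6 h at 37 °C, then 1.5 ng/mL EGF for 15 min. Phospho-MAPK read by fixed-cell ELISA (fluorescence, 595 nm) or by Western blot of lysates with anti-phospho-p44/42 (Thr202/Tyr204).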

[4] = test system: AKT phosphorylation; assay: Western AKT cell-based phosphorylation assay, PANC-1; details: Homo sapiens
How it was run: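 PANC-1 cells, serum-starved overnight in 0.5% FBS, were treated with compound at 10 μM (0.3% DMSO) for 6 h at 37 °C and then stimulated with 1.5 ng/ml EGF for 15 min. Lysates (15–50 μg) were immunoblotted for phospho-Akt Ser473, with ECL detection.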

[5] = 6 hours, EGF stimulation, PANC-1

| SMILES | inhibition at 10 µM ([3]; PANC-1 (Table 4C)) [%] | inhibition at 10 µM ([4]; PANC-1 (Table 4C)) [%] | inhibition at 10 µM [3, 5] [%] | inhibition at 10 µM [4, 5] [%] | further results |
| --- | --- | --- | --- | --- | --- |
| CO[C@H]1C[C@@H](Nc2nc(-c3nccn3C)nc3sc(C(=O)N4CCOCC4)c(-c4ccccc4)c23)C1 [drawing 787] | – | – | – | – | inhibition at 10 µM [1]: 1 to 25%; inhibition at 10 µM [2]: 1 to 25% |
| Cc1c(-c2ccn(C)n2)sc2nc(-c3nccn3C)nc(NCCOC(=O)N(C)C)c12 [drawing 783] | – | – | – | – | inhibition at 10 µM [1]: 26 to 50%; inhibition at 10 µM [2]: 51 to 75% |
| COC1CCN(c2nc(-c3nccn3C)nc3sc(-c4ccnc(N(C)C)c4)c(-c4ccccc4)c23)C1 (centres unmarked) [drawing 715] | – | – | – | – | inhibition at 30 µM [1]: 76 to 100%; inhibition at 30 µM [2]: 76 to 100% |
| COc1c(O)nc(-c2ccccn2)nc1Oc1ccccc1 [drawing 726] | – | – | – | – | inhibition at 30 µM [1]: 1 to 25%; inhibition at 30 µM [2]: 76 to 100% |
| COC1CCN(c2nc(-c3nccn3C)nc3sc(-c4cccnc4)c(-c4ccccc4)c23)C1 (centres unmarked) [drawing 704] | – | – | – | – | inhibition at 30 µM [1]: 76 to 100%; inhibition at 30 µM [2]: 76 to 100% |
| CO[C@H]1C[C@@H](Nc2nc(-c3ncc[nH]3)nc3sc(-c4ccn(C)n4)c(-c4ccccc4)c23)C1 [drawing 775] | – | – | – | – | inhibition at 10 µM [1]: 1 to 25%; inhibition at 10 µM [2]: 76 to 100% |
| CO[C@H]1C[C@@H](Nc2nc(-c3nccn3C)nc3sc(-c4cnn(C)c4)c(-c4ccccc4)c23)C1 [drawing 757] | – | – | – | – | inhibition at 10 µM [1]: 1 to 25%; inhibition at 10 µM [2]: 51 to 75% |
| COc1cccc(-c2sc3nc(-c4nccn4C)nc(N4CCC(OC)C4)c3c2-c2cscn2)c1 (centres unmarked) [drawing 694] | – | – | – | – | inhibition at 30 µM [1]: 1 to 25%; inhibition at 30 µM [2]: 1 to 25% |
| COC1CCN(c2nc(-c3nccn3C)nc3sc(-c4ccccc4Cl)c(-c4cscn4)c23)C1 (centres unmarked) [drawing 692] | – | – | – | – | inhibition at 30 µM [1]: 0%; inhibition at 30 µM [2]: 51 to 75% |
| Oc1nc(-c2cn3cccnc3n2)nc2c(-c3ccccn3)csc12 [drawing 674] | – | – | – | – | inhibition at 30 µM [1]: 0%; inhibition at 30 µM [2]: 0% |
| COc1cccc(Cn2ccnc2-c2nc(O)c3scc(-c4ccc(OCC(C)C)nc4)c3n2)c1 [drawing 500] | 76 to 100 | 0 | – | – | – |
| COc1ccc(Oc2nc(-c3ccccn3)nc(O)c2OC)cc1 [drawing 449] | – | – | 0 | 0 | – |
| Cn1ccc(-c2sc3nc(-c4nccn4C)nc(N4CCC5(CCOC5)C4)c3c2-c2ccccc2)n1 (centres unmarked) [drawing 409] | – | – | 0 | 0 | – |
| O=C(c1nc(-c2ccccn2)nc(O)c1O)N1CCCC1 [drawing 456] | – | – | 0 | 0 | – |
| COc1cccc(-c2sc3nc(-c4nccn4C)nc(N4CCC(OC)C4)c3c2-c2ccccc2)c1F (centres unmarked) [drawing 444] | – | – | 76 to 100 | 76 to 100 | – |
| Oc1nc(-c2ncc3n2CCCC3)nc2c(-c3ccccn3)csc12 [drawing 388] | – | – | 0 | 0 | – |
| CO[C@H]1CC[C@@H](Nc2nc(-c3nccn3C)nc3sc(-c4ccn(C(C)C)n4)c(-c4ccccc4)c23)C1 [drawing 512] | 76 to 100 | 76 to 100 | – | – | – |
| O=C(NCc1ccccc1)c1nc(-c2ccccn2)nc(O)c1O [drawing 455] | – | – | 1 to 25 | 0 | – |
| Cn1ccc(-c2sc3nc(-c4nccn4C)nc(N[C@@H]4CC[C@H](O)C4)c3c2-c2ccccc2)n1 (racemic) [drawing 509] | 26 to 50 | 0 | – | – | – |
| COc1ccc(Cn2cnc(-c3nc(O)c4scc(-c5ccccn5)c4n3)c2)cc1 [drawing 399] | – | – | 51 to 75 | 0 | – |
| CCOc1cccc(Nc2nc(-c3ccccn3)nc(O)c2OC)c1 [drawing 482] | 0 | 0 | – | – | – |
| COc1ccc(-c2sc3nc(-c4nccn4C)nc(N4CCC(OC)C4)c3c2-c2ccccc2)cn1 (centres unmarked) [drawing 430] | – | – | 1 to 25 | 0 | – |

| SMILES | inhibition at 10 µM ([3]; PANC-1 (Table 4C)) [%] | inhibition at 10 µM ([4]; PANC-1 (Table 4C)) [%] | inhibition at 10 µM [3, 5] [%] | inhibition at 10 µM [4, 5] [%] | further results |
| --- | --- | --- | --- | --- | --- |
| COc1cccc(-c2sc3nc(-c4nccn4C)nc(NC4CCC(OC)C4)c3c2C)c1F (centres unmarked) [drawing 493] | 76 to 100 | 0 | – | – | – |
| CO[C@H]1CC[C@@H](Nc2nc(-c3ncc[nH]3)nc3sc(-c4ccn(C)n4)c(-c4ccccc4)c23)C1 [drawing 511] | 76 to 100 | 76 to 100 | – | – | – |
| COC1CCN(c2nc(-c3nccn3C)nc3sc(Br)c(-c4ccccc4)c23)C1 (centres unmarked) [drawing 441] | – | – | 26 to 50 | 0 | – |
| COCCNC(=O)c1sc2nc(-c3nccn3C)nc(N[C@@H]3CC[C@H](OC)C3)c2c1-c1ccccc1 [drawing 525] | 0 | 0 | – | – | – |
| COc1c(F)cccc1-c1sc2nc(-c3nccn3C)nc(NC3CCC(OC)C3)c2c1-c1ccccc1 (centres unmarked) [drawing 486] | 76 to 100 | 76 to 100 | – | – | – |
| COc1cccc(-c2sc3nc(-c4nccn4C)nc(NC4CCC(OC)C4)c3c2-c2ccccc2)c1F (centres unmarked) [drawing 483] | 76 to 100 | 76 to 100 | – | – | – |
| CN(Cc1ccccc1)C(=O)c1nc(-c2ccccn2)nc(O)c1O [drawing 454] | – | – | 0 | 0 | – |
| COC1CCN(c2nc(-c3nccn3C)nn3cc(-c4ccccc4)c(-c4ccccc4)c23)C1 (centres unmarked) [drawing 471] | – | – | 51 to 75 | 0 | – |
| COC1CCN(c2nc(-c3nccn3C)nc3sc(-c4ccnn4C)c(-c4ccccc4)c23)C1 (centres unmarked) [drawing 428] | – | – | 0 | 0 | – |
| CO[C@H]1CC[C@@H](Nc2nc(-c3nccn3C)nc3sc(-c4cccc5[nH]ncc45)c(-c4ccccc4)c23)C1 [drawing 489] | 76 to 100 | 0 | – | – | – |
| COc1nc(-c2ccccn2)nc(Nc2cnn(C)c2)c1OC [drawing 469] | – | – | 0 | 0 | – |
| Cn1ccnc1-c1nc(O)c(O)c(C(=O)NC2CCCC2)n1 [drawing 465] | – | – | 0 | 0 | – |
| Oc1nc(-c2cn3ccccc3n2)nc2c(-c3ccccn3)csc12 [drawing 389] | – | – | 26 to 50 | 0 | – |
| COC1CCC(Nc2nc(-c3nccn3C)nc3sc(-c4cccc5[nH]ncc45)c(C)c23)C1 (centres unmarked) [drawing 495] | 76 to 100 | 76 to 100 | – | – | – |
| Cc1c(-c2ccn(C)n2)sc2nc(-c3nccn3C)nc(NCCCS(C)(=O)=O)c12 [drawing 516] | 0 | 0 | – | – | – |
| COc1c(O)nc(-c2ccccn2)nc1Oc1ccc(C(=O)N(C)C)cc1 [drawing 479] | 0 | 0 | – | – | – |
| Oc1nc(-c2cn(-c3ccccc3)cn2)nc2c(-c3ccccn3)csc12 [drawing 398] | – | – | 0 | 0 | – |
| CO[C@H]1C[C@@H](Nc2nc(-c3nccn3C)nc3sc(C(=O)N4CCOCC4)c(-c4ccccc4)c23)C1 [drawing 522] | 0 | 0 | – | – | – |
| COc1c(F)cccc1-c1sc2nc(-c3nccn3C)nc(N[C@@H]3CC[C@H](OC)C3)c2c1-c1ccccc1 [drawing 487] | 76 to 100 | 76 to 100 | – | – | – |
| CO[C@H]1C[C@@H](Nc2nc(-c3nccn3C)nc3sc(-c4ccn(C)n4)c(C)c23)C1 [drawing 514] | 76 to 100 | 0 | – | – | – |
| COc1cccc(-c2csc3c(O)nc(-c4nccn4C)nc23)c1Cl [drawing 386] | – | – | 26 to 50 | 0 | – |
